The target of assay [1] is Human immunodeficiency virus type 1 reverse transcriptase (Human immunodeficiency virus 1) (UniProt Q72547). As to the kind of experiment: Inhibition of HIV1 reverse transcriptase at 200 ug/mL.
Assay [2] shares this target. As to the kind of experiment: Inhibition of HIV1 reverse transcriptase.

In brackets after ≈: the same amount, converted by molar mass.

Broadly, the inhibition is the drop in the measured response relative to a control, in per cent. Consider `COc1cc(O)c2c(=O)c3c(O)c(-c4c(O)c([C@@H]5O[C@H](CO)[C@@H](O)[C@H](O)[C@H]5O)c(O)c5c(=O)cc(-c6ccc(O)c(O)c6)oc45)cc(O)c3oc2c1`, for which, in assay [1], the inhibition was 99.8%. In assay [2], this molecule registered an ED50 of 30.9 µg/mL (≈ 42.9 µM).

Molecule `COc1cc(O)c2c(=O)c3c(O)c(-c4c(O)c([C@@H]5O[C@H](CO)[C@@H](O)[C@H](O)[C@H]5O)c(O)c5c(=O)c6cc(O)c(O)cc6oc45)cc(O)c3oc2c1` came in with an ED50 in assay [2] of 3 µg/mL (≈ 4.32 µM).
